Measured values published in patent US6777412B2 (priority 1990, dated 2004).
Where two headings read alike, the source gives them in different places. Marks after values point to notes of the source that are not given here.

Columns and labels:
Assay type in all cases: in vivo
Plasmopara viticola = experiment: Foliar fungal disease test on plants: Plasmopara viticola (Pv)
Procedure: (§1) The compounds were tested against a variety of foliar fungal diseases of plants. The technique employed was as follows.
(§2) The plants were grown in John Innes Potting Compost (No.1 or 2) in 4 cm diameter minipots. The test compounds were formulated either by bead milling with aqueous Dispersol T or as a solution in acetone or acetone/ethanol which was diluted to the required concentration immediately before use. For the foliage diseases, the formulations (100 ppm active ingredient except where otherwise indicated) were sprayed onto the foliage and applied to the roots of the plants in the soil. The sprays were applied to maximum retention and the root drenches to a final concentration equivalent to approximately 40 ppm a.i. in dry soil. Tween 20, to give a final concentration of 0.05%, was added when the sprays were applied to cereals.
(§3) For most of the tests the compound was applied to the soil (roots) and to the foliage (by spraying) one or two days before the plant was inoculated with the disease. An exception was the test on Erysiphe graminis in which the plants were inoculated 24 hours before treatment. Foliar pathogens were applied by spray as spore suspensions onto the leaves of test plants. After inoculation, the plants were put into an appropriate environment to allow infection to proceed and then incubated until the disease was ready for assessment. The period between inoculation and assessment varied from four to fourteen days according to the disease and environment.
(§4) The disease control vas recorded by the following grading:
(§5) 3=trace-5% of disease on untreated plants
(§6) 2=6-25% of disease on untreated plants
(§7) 1=26-59% of disease on untreated plants
(§8) 0=60-100% of disease on untreated plants

Thanatephorus cucumeris = experiment: Foliar fungal disease test on plants: Thanatephorus cucumeris (Tc); settings: 100 ppm active ingredient foliar spray plus root drench (approx. 40 ppm a.i. in dry soil), one or two days before inoculation
Procedure: as §1, §2, §3, §4, §5, §6, §7, §8
Tc Thanatephorus cucumeris

[1] = tested on: Phytophthora infestans lycopersici
Puccinia recondita = experiment: Foliar fungal disease test on plants: Puccinia recondita (Pr)
Procedure: as §1, §2, §3, §4, §5, §6, §7, §8

Pyricularia oryzae = tested on: Pyricularia oryzae
Erysiphe graminis hordei = experiment: Foliar fungal disease test on plants: Erysiphe graminis hordei (Egh); settings: 100 ppm active ingredient foliar spray plus root drench (approx. 40 ppm a.i. in dry soil); plants inoculated 24 hours before treatment
Procedure: as §1, §2, §3, §4, §5, §6, §7, §8
Egh Erysiphe graminis hordei

Venturia inaequalis = experiment: Foliar fungal disease test on plants: Venturia inaequalis (Vi)
Procedure: as §1, §2, §3, §4, §5, §6, §7, §8

[2] = tested on: Erysiphe graminis tritici; experiment: Foliar fungal disease test on plants: Erysiphe graminis tritici (Egt)
Procedure: as §1, §2, §3, §4, §5, §6, §7, §8
Egt Erysiphe graminis tritici

Septoria nodorum = experiment: Foliar fungal disease test on plants: Septoria nodorum (Sn)
Procedure: as §1, §2, §3, §4, §5, §6, §7, §8

[3] = 100 ppm active ingredient foliar spray plus root drench (approx. 40 ppm a.i. in dry soil), one or two days before inoculation
[4] = 100 ppm active ingredient foliar spray plus root drench (approx. 40 ppm a.i. in dry soil), plants inoculated 24 hours before treatment

Compound	disease control grading, Pv (Plasmopara viticola) (Plasmopara viticola; [3])	disease control grading, Tc (Thanatephorus cucumeris) (Thanatephorus cucumeris)	disease control grading, Pil (Phytophthora infestans lycopersici) [1, 3]	disease control grading, Pr (Puccinia recondita) (Puccinia recondita; [3])	disease control grading, Po (Pyricularia oryzae) (Pyricularia oryzae; [3])	disease control grading, Egh (Erysiphe graminis hordei) (Erysiphe graminis hordei)	disease control grading, Vi (Venturia inaegualis) (Venturia inaequalis; [3])	disease control grading, Egt (Erysiphe graminis tritici) [2, 4]	disease control grading, Sn (Septoria nodorum) (Septoria nodorum; [3])	disease control grading, Pv (Plasmopara viticola) (Plasmopara viticola; 10 ppm foliar application only)	disease control grading, Pil (Phytophthora infestans lycopersici) ([1]; 10 ppm foliar application only)	disease control grading, Egt (Erysiphe graminis tritici) ([2]; 10 ppm foliar application only)	disease control grading, Pr (Puccinia recondita) (Puccinia recondita; 10 ppm foliar application only)	disease control grading, Sn (Septoria nodorum) (Septoria nodorum; 10 ppm foliar application only)	disease control grading, Po (Pyricularia oryzae) (Pyricularia oryzae; 10 ppm foliar application only)	disease control grading, Vi (Venturia inaegualis) (Venturia inaequalis; 10 ppm foliar application only)	disease control grading, Pr (Puccinia recondita) (Puccinia recondita; 100 ppm foliar application only)
CO/C=C(/C(=O)OC)c1ccccc1Oc1cc(OCc2ccc([N+](=O)[O-])cc2)ncn1 [133 of Table I]	4 (4=no disease)	4 (4=no disease)	0 (0=60-100% of disease on untreated plants)	4 (4=no disease)	3 (3=trace-5% of disease on untreated plants)	4 (4=no disease)	3 (3=trace-5% of disease on untreated plants)	–	–	–	–	–	–	–	–	–	–
CO/C=C(/C(=O)OC)c1ccccc1Oc1cc(OCc2cccnn2)ncn1 [271 of Table I]	0 (0=60-100% of disease on untreated plants)	–	2 (2=6-25% of disease on untreated plants)	4 (4=no disease)	2 (2=6-25% of disease on untreated plants)	–	0 (0=60-100% of disease on untreated plants)	3 (3=trace-5% of disease on untreated plants)	2 (2=6-25% of disease on untreated plants)	–	–	–	–	–	–	–	–
CO/C=C(/C(=O)OC)c1ccccc1Oc1cc(OCc2ccccc2[N+](=O)[O-])ncn1 [375 of Table I]	3 (3=trace-5% of disease on untreated plants)	4 (4=no disease)	0 (0=60-100% of disease on untreated plants)	4 (4=no disease)	4 (4=no disease)	4 (4=no disease)	3 (3=trace-5% of disease on untreated plants)	–	–	–	–	–	–	–	–	–	–
CO/C=C(/C(=O)OC)c1ccccc1Oc1cc(OC/C=C/c2ccccc2)ncn1 [376 of Table I]	4 (4=no disease)	4 (4=no disease)	4 (4=no disease)	4 (4=no disease)	3 (3=trace-5% of disease on untreated plants)	4 (4=no disease)	4 (4=no disease)	–	–	–	–	–	–	–	–	–	–
CO/C=C(/C(=O)OC)c1ccccc1Oc1cc(OCCCc2ccccc2Cl)ncn1 [384 of Table I]	4 (4=no disease)	4 (4=no disease)	4 (4=no disease)	4 (4=no disease)	–	4 (4=no disease)	4 (4=no disease)	–	4 (4=no disease)	–	–	–	–	–	–	–	–
CO/C=C(/C(=O)OC)c1ccccc1Oc1cc(OCc2ccccc2C(F)(F)F)ncn1 [385 of Table I]	4 (4=no disease)	4 (4=no disease)	4 (4=no disease)	4 (4=no disease)	–	4 (4=no disease)	4 (4=no disease)	–	4 (4=no disease)	–	–	–	–	–	–	–	–
CO/C=C(/C(=O)OC)c1ccccc1Oc1cc(OCCOc2c(F)cccc2C#N)ncn1 [397 of Table I]	4 (4=no disease)	–	3 (3=trace-5% of disease on untreated plants)	4 (4=no disease)	4 (4=no disease)	–	4 (4=no disease)	4 (4=no disease)	3 (3=trace-5% of disease on untreated plants)	–	–	–	–	–	–	–	–
CO/C=C(/C(=O)OC)c1ccccc1Oc1cc(-c2sc(-c3ccccc3O)nc2C)ncn1 [399 of Table I]	–	–	–	–	–	–	–	–	–	4^a (4=no disease)	0^a (0=60-100% of disease on untreated plants)	0^a (0=60-100% of disease on untreated plants)	0^a (0=60-100% of disease on untreated plants)	0^a (0=60-100% of disease on untreated plants)	0^a (0=60-100% of disease on untreated plants)	3^a (3=trace-5% of disease on untreated plants)	–
CO/C=C(/C(=O)OC)c1ccccc1Oc1cc(-c2c(N)oc3ccccc23)ncn1 [400 of Table I]	4 (4=no disease)	–	4 (4=no disease)	4 (4=no disease)	0 (0=60-100% of disease on untreated plants)	–	4 (4=no disease)	4 (4=no disease)	4 (4=no disease)	–	–	–	–	–	–	–	–
CCOc1ccccc1Nc1cc(Oc2ccccc2/C(=C\OC)C(=O)OC)ncn1 [401 of Table I]	4 (4=no disease)	–	3 (3=trace-5% of disease on untreated plants)	4 (4=no disease)	0 (0=60-100% of disease on untreated plants)	–	4 (4=no disease)	4 (4=no disease)	4 (4=no disease)	–	–	–	–	–	–	–	–
CCCCOc1ccccc1Nc1cc(Oc2ccccc2/C(=C\OC)C(=O)OC)ncn1 [402 of Table I]	4 (4=no disease)	–	3 (3=trace-5% of disease on untreated plants)	4 (4=no disease)	0 (0=60-100% of disease on untreated plants)	–	4 (4=no disease)	4 (4=no disease)	4 (4=no disease)	–	–	–	–	–	–	–	–
CO/C=C(/C(=O)OC)c1ccccc1Oc1cc(O/N=C(\C)c2ccccc2)ncn1 [403 of Table I]	–	–	–	–	–	–	–	–	–	4^a (4=no disease)	1^a (1=26-59% of disease on untreated plants)	0^a (0=60-100% of disease on untreated plants)	–	0^a (0=60-100% of disease on untreated plants)	0^a (0=60-100% of disease on untreated plants)	4^a (4=no disease)	4^b (4=no disease)
CO/C=C(/C(=O)OC)c1ccccc1Oc1cc(O/N=C(\C)c2cnccn2)ncn1 [404 of Table I]	4 (4=no disease)	–	1 (1=26-59% of disease on untreated plants)	4 (4=no disease)	3 (3=trace-5% of disease on untreated plants)	–	4 (4=no disease)	4 (4=no disease)	3 (3=trace-5% of disease on untreated plants)	–	–	–	–	–	–	–	–
CO/C=C(/C(=O)OC)c1ccccc1Oc1cc(OCc2ccc(F)cc2)ncn1 [405 of Table I]	4 (4=no disease)	–	4 (4=no disease)	4 (4=no disease)	4 (4=no disease)	–	4 (4=no disease)	4 (4=no disease)	0 (0=60-100% of disease on untreated plants)	–	–	–	–	–	–	–	–
CO/C=C(/C(=O)OC)c1ccccc1Oc1cc(Sc2nc3ccccc3s2)ncn1 [530 of Table I]	4 (4=no disease)	–	4 (4=no disease)	3 (3=trace-5% of disease on untreated plants)	0 (0=60-100% of disease on untreated plants)	–	4 (4=no disease)	4 (4=no disease)	4 (4=no disease)	–	–	–	–	–	–	–	–
